The results in this text go back to ChEMBL document CHEMBL1201862, “PubChem BioAssay data set” (2004).

SMILES strings stand for the structures. The source made the active and inactive calls. Bounds are passed on as bounds.

In assay [1] the target is Lysine-specific demethylase 4A (Homo sapiens, UniProt O75164). Nature of the assay: JMJD2A histone demethylase inhibitors, dose response, selectivity assay for GASC-1 inhibitor project, biochemical, DELFIA europium, cherry-picked samples (AID 488840).
For assay [2], the target named is Ras and Rab interactor 1/Tyrosine-protein kinase ABL1 (Homo sapiens, UniProt P00519+Q13671). It counts as functional.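 Also: biochemical TR-FRET dose-response test measuring inhibition of binding between Rin1 and Abl proteins.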
Sequence of Ras and Rab interactor 1/Tyrosine-protein kinase ABL1 (P00519 whole entry): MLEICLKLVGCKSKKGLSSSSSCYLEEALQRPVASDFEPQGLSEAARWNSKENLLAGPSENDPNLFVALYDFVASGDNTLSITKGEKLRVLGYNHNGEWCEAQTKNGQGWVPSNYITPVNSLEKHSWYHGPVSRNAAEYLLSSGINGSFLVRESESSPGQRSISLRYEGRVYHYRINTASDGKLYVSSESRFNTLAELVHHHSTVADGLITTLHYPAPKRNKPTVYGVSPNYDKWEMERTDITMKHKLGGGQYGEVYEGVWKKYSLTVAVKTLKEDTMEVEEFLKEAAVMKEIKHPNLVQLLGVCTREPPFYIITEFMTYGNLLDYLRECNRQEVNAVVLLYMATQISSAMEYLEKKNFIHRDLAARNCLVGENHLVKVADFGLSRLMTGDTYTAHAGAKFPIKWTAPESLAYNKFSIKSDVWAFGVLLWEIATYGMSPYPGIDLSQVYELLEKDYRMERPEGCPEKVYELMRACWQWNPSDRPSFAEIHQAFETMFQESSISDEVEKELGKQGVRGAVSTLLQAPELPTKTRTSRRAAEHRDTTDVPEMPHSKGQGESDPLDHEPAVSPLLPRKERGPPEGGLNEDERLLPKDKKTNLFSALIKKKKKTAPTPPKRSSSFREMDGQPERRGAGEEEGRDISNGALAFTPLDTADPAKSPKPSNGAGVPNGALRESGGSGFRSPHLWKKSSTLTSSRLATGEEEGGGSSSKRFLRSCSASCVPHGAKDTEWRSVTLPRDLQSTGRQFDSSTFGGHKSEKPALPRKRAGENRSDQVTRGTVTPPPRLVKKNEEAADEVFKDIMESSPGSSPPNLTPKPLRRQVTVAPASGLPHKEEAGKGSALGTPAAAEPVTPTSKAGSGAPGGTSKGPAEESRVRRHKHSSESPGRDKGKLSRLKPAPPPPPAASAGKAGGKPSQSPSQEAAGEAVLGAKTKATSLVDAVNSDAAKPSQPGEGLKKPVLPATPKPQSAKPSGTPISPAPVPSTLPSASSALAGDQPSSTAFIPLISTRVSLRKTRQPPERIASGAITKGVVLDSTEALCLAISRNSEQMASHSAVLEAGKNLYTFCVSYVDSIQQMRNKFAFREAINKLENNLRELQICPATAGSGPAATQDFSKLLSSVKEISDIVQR
Sequence of Ras and Rab interactor 1/Tyrosine-protein kinase ABL1 (Q13671 whole entry): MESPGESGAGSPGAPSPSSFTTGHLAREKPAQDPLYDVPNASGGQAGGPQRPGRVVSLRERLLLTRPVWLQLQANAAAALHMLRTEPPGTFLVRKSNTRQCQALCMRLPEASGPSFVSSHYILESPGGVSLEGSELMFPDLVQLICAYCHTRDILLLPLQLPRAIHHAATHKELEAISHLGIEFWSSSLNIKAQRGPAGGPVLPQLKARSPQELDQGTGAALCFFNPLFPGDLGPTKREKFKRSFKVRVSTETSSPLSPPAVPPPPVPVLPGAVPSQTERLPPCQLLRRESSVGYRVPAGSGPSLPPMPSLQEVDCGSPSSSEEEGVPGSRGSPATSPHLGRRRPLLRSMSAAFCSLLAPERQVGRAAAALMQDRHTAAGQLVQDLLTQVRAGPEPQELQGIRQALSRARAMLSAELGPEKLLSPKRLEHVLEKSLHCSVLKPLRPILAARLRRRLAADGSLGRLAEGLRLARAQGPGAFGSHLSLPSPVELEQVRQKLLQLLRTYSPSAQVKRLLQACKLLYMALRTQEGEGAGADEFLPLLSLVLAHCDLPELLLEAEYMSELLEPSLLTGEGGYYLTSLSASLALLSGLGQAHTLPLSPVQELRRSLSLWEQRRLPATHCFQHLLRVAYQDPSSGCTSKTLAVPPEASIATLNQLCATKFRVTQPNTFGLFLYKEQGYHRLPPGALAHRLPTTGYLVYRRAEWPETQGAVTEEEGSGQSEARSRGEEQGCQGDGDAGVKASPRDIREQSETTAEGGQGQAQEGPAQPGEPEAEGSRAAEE
Assay [3] in a line: Luminescence Cell-Based Dose Confirmation HTS to Identify Activators of 5'UTR Stem-Loop Driven Alpha-Synuclein mRNA Translation in H4 Neuroglioblastoma Cells. [Related pubchem assays: 1829 (Project Summary), 1814 (Primary HTS)]. It counts as functional.
Assay [4] is described as follows: Luminescence Cell-Based Dose Response HTS to Identify Activators of Luciferase Translation or Activity in H4 […] Cells. [Related pubchem assays: 1829 (Project Summary), 1814 (Primary HTS)]. It counts as functional.
The subject of another assay is H4. Nature of the assay: Luminescence Cell-Based Dose Response HTS to Identify Activators of 5'UTR Stem-Loop Driven Prion Protein mRNA Translation in H4 Neuroglioblastoma Cells. [Related pubchem assays: 1829 (Project Summary), 1814 (Primary HTS)]. The settings on record: Homo sapiens. It counts as functional.
Assay [5] has as its target T1, Kappa-type opioid receptor (Homo sapiens, UniProt P41145). It counts as functional.
For another assay, the target named is Beta-galactosidase (Escherichia coli, UniProt Q8VNN2). It counts as functional.
Sequence of Beta-galactosidase (Q8VNN2 whole entry): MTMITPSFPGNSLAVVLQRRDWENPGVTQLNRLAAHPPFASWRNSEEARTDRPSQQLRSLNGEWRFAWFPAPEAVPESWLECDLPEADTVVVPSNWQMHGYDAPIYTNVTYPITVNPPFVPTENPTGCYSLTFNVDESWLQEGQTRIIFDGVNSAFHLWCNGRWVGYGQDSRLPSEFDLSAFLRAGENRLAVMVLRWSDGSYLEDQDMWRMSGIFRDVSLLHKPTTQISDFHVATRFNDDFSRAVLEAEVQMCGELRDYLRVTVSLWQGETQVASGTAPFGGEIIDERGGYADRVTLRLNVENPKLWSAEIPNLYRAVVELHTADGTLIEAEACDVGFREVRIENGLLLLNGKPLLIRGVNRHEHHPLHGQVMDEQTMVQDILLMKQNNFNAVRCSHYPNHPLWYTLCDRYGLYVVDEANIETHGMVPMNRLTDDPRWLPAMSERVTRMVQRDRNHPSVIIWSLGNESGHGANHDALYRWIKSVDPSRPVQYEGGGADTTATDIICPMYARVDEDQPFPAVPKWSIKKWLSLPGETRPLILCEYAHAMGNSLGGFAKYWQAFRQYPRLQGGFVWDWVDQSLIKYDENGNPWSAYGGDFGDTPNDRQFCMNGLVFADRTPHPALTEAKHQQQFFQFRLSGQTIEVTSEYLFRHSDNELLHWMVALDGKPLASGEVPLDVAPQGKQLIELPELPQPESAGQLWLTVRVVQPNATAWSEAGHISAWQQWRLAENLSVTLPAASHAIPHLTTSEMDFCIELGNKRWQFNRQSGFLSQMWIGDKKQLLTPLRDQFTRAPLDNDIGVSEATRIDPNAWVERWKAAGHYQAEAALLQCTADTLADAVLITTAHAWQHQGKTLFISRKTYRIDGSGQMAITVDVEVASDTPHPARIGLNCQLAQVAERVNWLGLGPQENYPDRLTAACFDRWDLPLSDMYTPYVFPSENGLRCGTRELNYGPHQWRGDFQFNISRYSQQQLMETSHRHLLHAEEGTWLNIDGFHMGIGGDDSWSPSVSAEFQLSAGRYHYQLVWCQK
The target of assay [6] is T1, Kappa-type opioid receptor. It counts as functional. This is another data set of the same source.
For assay [7], the target named is T2, Mu-type opioid receptor (Homo sapiens, UniProt P35372). Nature of the assay: MOR agonists by imaging, SAR follow-up, image-based (AID 2352). It counts as functional.
T2 sequence (P35372 whole entry): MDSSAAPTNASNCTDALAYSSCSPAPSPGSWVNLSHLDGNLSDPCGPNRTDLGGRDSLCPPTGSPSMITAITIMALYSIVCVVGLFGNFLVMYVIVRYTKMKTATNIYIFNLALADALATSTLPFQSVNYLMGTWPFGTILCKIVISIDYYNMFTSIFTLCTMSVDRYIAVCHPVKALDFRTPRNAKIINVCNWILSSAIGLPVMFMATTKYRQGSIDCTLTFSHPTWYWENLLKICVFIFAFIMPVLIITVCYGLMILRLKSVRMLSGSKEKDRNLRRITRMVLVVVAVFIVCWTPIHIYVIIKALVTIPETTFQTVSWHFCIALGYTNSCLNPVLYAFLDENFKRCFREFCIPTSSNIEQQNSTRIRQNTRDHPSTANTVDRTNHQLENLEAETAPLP
Assay [8] deals with T3, Delta-type opioid receptor (Homo sapiens, UniProt P41143). Kind of assay: DOR agonists, SAR follow-up, image-based (AID 2370). It counts as functional.
T3 sequence (P41143 whole entry): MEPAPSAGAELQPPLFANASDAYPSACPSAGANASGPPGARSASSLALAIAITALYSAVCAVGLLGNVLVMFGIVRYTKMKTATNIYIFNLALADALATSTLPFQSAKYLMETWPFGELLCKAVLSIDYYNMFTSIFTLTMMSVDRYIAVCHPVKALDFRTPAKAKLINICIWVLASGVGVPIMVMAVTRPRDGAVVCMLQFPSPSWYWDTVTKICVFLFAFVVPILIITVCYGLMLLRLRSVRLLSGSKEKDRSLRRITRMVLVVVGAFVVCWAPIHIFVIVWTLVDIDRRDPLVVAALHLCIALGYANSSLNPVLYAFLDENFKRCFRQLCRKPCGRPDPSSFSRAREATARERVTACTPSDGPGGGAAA
For assay [9], the target named is T1, Kappa-type opioid receptor. Kind of assay: KOR antagonists by imaging, SAR follow-up, image-based (AID 2348). It counts as functional.
In assay [10] the target is T2, Mu-type opioid receptor. Kind of assay: MOR antagonists, SAR follow-up, image-based (AID 2420).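 Also: compounds added before stimulation of receptor with agonist DAMGO.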 It counts as functional.
Assay [11] has as its target T1, Kappa-type opioid receptor. Nature of the assay: KOR agonist analogs, imaging readout, SAR follow-up, image-based (AID 2359). It counts as functional.
For assay [12], the target named is T3, Delta-type opioid receptor. Kind of assay: DOR antagonists, SAR follow-up, image-based (AID 2357). It counts as functional.
Assay [13] addresses T1, Kappa-type opioid receptor. Nature of the assay: kappa opioid receptor blockers, cell-based, luminescence, beta-arrestin, SAR follow-up (AID 2285). It counts as functional.

For orientation: AC50 means the concentration giving half of the maximal activity seen. As usually defined, the IC50 is the point on the concentration scale where inhibition reaches its midpoint. Usually EC50 stands for the concentration that produces a half-maximal response.

T1 sequence (P41145 whole entry): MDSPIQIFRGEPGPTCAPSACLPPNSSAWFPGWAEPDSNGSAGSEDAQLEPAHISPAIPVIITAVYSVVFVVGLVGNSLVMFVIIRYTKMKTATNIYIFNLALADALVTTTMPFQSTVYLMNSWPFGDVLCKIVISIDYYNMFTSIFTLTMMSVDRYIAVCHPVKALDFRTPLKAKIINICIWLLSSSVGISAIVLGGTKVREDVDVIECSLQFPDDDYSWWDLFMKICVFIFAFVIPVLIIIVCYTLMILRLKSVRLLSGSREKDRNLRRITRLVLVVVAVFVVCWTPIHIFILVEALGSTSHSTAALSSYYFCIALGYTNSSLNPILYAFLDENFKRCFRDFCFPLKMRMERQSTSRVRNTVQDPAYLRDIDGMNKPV

Take `CN(C(=O)c1ccc(NC(=O)Cc2ccc(NC(=O)C3CCN(C(=O)C4CC4)CC3)cc2)cc1)C1CC1`: the AC50 in assay [1] is 17.8 µM (active). Moreover, in assay [2], the 50% inhibitory concentration (IC50) is 9.39 µM (active).
As for `Cc1ccc(CN2C3CCCC2CC(NC(=O)c2ccc(C)cc2)C3)cc1` (stereo not given), the EC50 is > 120 µM (not active) in assay [3]; > 120 µM (not active) in assay [4]; > 120 µM (not active) in the assay on H4; > 31.5 µM (inactive) at Beta-galactosidase; > 32 µM (inactive) on Mu-type opioid receptor [7]; > 32 µM (inactive) in assay [8]. Also, the EC50 in assay [11] was > 32 µM (inactive). The concentration for half-maximal inhibition (IC50) in [5] was 2.62 µM (active); in assay [6], 0.824 µM; in [9], > 32 µM (inactive); on Mu-type opioid receptor [10], > 32 µM (inactive); in assay [12] it was > 32 µM (inactive); in assay [13], 3.28 µM (active).
